Reference: US12365687B2 (Hoffmann-La Roche Inc., priority 2021, dated 2025)

Assays:
[1] = target: human GABAA α5β2γ1 receptor (Homo sapiens (Human), UniProt P31644+Q8N1C3); assay: Radioligand binding assay for γ1-containing GABAA subtypes, [3H]RO7239181 competition (α5β2γ1)
[2] = target: human GABAA α2β2γ1 receptor (Homo sapiens (Human), UniProt P47869+Q8N1C3); assay: Radioligand binding assay for γ1-containing GABAA subtypes, [3H]RO7239181 competition (α2β2γ1)
[3] = target: human GABAA α1β3γ2 receptor (Homo sapiens (Human), UniProt P14867+P18507); assay: Radioligand binding assay for γ2-containing GABAA subtypes, [3H]Flumazenil competition (α1β3γ2); settings: for γ2/γ1 Selectivity Ratio: Ki α1β3γ2 (nM)/Ki α2β2γ1 (nM); for LogSel: Log[Ki α1β3γ2 (nM)/Ki α2β2γ1 (nM)]
[4] = target: α2β2γ1 GABAA receptor subtype (Homo sapiens (Human), UniProt P47869+Q8N1C3); assay: Two-electrode voltage clamp electrophysiology in Xenopus oocytes expressing GABAA receptors (modulation of GABA EC20 current); format: cell-based; settings: for Efficacy (GABA)%: % modulation of GABA EC20 = 100*(Fold increase-1), α2β2γ1 oocytes, compound at approx. 30-fold Ki; for Fold increase h-GABA-A α2β2γ1 oocyte @ 30-fold Ki: Xenopus oocytes expressing α2β2γ1, compound at approx. 30-fold its Ki α2β2γ1, GABA EC20 current
Method in brief: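 Two-electrode voltage clamp at −80 mV, room temperature, 3-5 days after mRNA injection into oocytes. GABA applied at EC20 for 1.5 min, twice, with compound during second application; at least 3 oocytes per concentration. Efficacy = extremum of point-by-point current ratio, expressed as 100×(fold increase−1).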

[5] = Ki h-GABAA α2β2γ1, [3H]RO7239181 competition binding, human GABAA α2β2γ1
[6] = Ki h-GABAA α2β2γ1, displacement of [3H]RO7239181, membranes of HEK293F cells expressing human receptors, means of two determinations

Structure (SMILES)	Ki [1] [nM]	Ki [2, 5] [nM]	Ki [2, 6] [nM]	Ki [3] [µM]	γ2/γ1 Selectivity Ratio [3]	LogSel [3]	Efficacy (GABA)% [4] [%]	Fold increase h-GABA-A α2β2γ1 oocyte @ 30-fold Ki [4]
C[C@@H]1N=C(c2c(F)cccc2F)c2c(ccc(C(F)(F)F)c2Cl)-n2c(CO)cnc21 [Example 132, [(4S)-7-chloro-6-(2,6-difluorophenyl)-4-methyl-8-(trifluoromethyl)-4H-imidazo[1,2-a][1,4]benzodiazepin-1-yl]methanol]	2.63	33.8	33.8	2.56	75.8	1.88	105	2.05
C[C@@H]1N=C(c2c(F)cccc2F)c2c(ccc(C(F)(F)F)c2Cl)-n2c1nc1c2CCC1 [Example 133, (10S)-6-chloro-8-(2,6-difluorophenyl)-10-methyl-5-(trifluoromethyl)-1,9,12-triazatetracyclo[9.6.0.02,7.013,17]heptadeca-2,4,6,8,11,13(17)-hexaene]	5.23	23.3	23.3	0.827	35.5	1.55	41	1.41
CC1CN(C(=O)c2nc3n(n2)-c2ccc(C(F)(F)F)c(Cl)c2C(c2ncccc2F)=N[C@H]3C)C1 [Example 135, [(4S)-7-chloro-6-(3-fluoro-2-pyridyl)-4-methyl-8-(trifluoromethyl)-4H-[1,2,4]triazolo[1,5-a][1,4]benzodiazepin-2-yl]-(3-methylazetidin-1-yl)methanone]	9.35	50.6	50.6	> 30	592.7	2.77	118	2.18
Cc1cnc2n1-c1ccc(C(F)(F)F)c(Cl)c1C(c1ncccc1F)=N[C@H]2C [Example 136, (4S)-7-chloro-6-(3-fluoro-2-pyridyl)-1,4-dimethyl-8-(trifluoromethyl)-4H-imidazo[1,2-a][1,4]benzodiazepine]	6.22	37.5	37.5	6.13	163.5	2.21	116	2.16
C[C@@H]1N=C(c2ncccc2F)c2c(ccc(C(F)(F)F)c2Cl)-n2nc(C(=O)NCCO)nc21 [Example 138, (4S)-7-chloro-6-(3-fluoro-2-pyridyl)-N-(2-hydroxyethyl)-4-methyl-8-(trifluoromethyl)-4H-[1,2,4]triazolo[1,5-a][1,4]benzodiazepine-2-carboxamide]	17.1	89.6	89.6	> 30	334.8	2.52	204	3.04
Cc1cn2c(n1)[C@H](C)N=C(c1ncccc1F)c1c-2ccc(C(F)(F)F)c1Cl [Example 139, (4S)-7-chloro-6-(3-fluoro-2-pyridyl)-2,4-dimethyl-8-(trifluoromethyl)-4H-imidazo[1,2-a][1,4]benzodiazepine]	5.54	30.8	30.8	3.06	99.6	2.00	149	2.49
C[C@@H]1N=C(c2ncccc2F)c2c(ccc(C(F)(F)F)c2Cl)-n2nc(C(=O)N3CC(OC(F)F)C3)nc21 [Example 140, [(4S)-7-chloro-6-(3-fluor-2-pyridyl)-4-methyl-8-(trifluoromethyl)-4H-[1,2,4]triazolo[1,5-a][1,4]benzodiazepin-2-yl]-[3-(difluoromethoxy)azetidin-1-yl]methanone]	6.63	28.8	28.8	> 30	1041.0	3.02	121	2.21
C[C@@H]1N=C(c2ncccc2F)c2c(ccc(C(F)(F)F)c2Cl)-n2cc(C(=O)NCCO)nc21 [Example 141, (4S)-7-chloro-6-(3-fluoro-2-pyridyl)-N-(2-hydroxyethyl)-4-methyl-8-(trifluoromethyl)-4H-imidazo[1,2-a][1,4]benzodiazepine-2-carboxamide]	12.4	55.9	55.9	12.2	218.4	2.34	112	2.12
C[C@@H]1N=C(c2ncccc2F)c2c(ccc(C(F)(F)F)c2Cl)-n2nc(C(=O)N3CC(C(F)F)C3)nc21 [Example 142, [(4S)-7-chloro-6-(3-fluoro-2-pyridyl)-4-methyl-8-(trifluoromethyl)-4H-[1,2,4]triazolo[1,5-a][1,4]benzodiazepin-2-yl]-[3-(difluoromethyl)azetidin-1-yl]methanone]	8.06	39.7	39.7	> 30	756.0	2.88	123	2.23
C[C@@H]1N=C(c2ncccc2F)c2c(ccc(C(F)(F)F)c2Cl)-n2nc(NC(=O)NC3CC3)nc21 [Example 143, 1-[(4S)-7-chloro-6-(3-fluoro-2-pyridyl)-4-methyl-8-(trifluoromethyl)-4H-[1,2,4]triazolo[1,5-a][1,4]benzodiazepin-2-yl]-3-cyclopropyl-urea]	7.35	45.4	45.4	13.5	296.6	2.47	110	2.10
COC1CN(C(=O)c2cn3c(n2)[C@H](C)N=C(c2ncccc2F)c2c-3ccc(C(F)(F)F)c2Cl)C1 [Example 145, [(4S)-7-chloro-6-(3-fluoro-2-pyridyl)-4-methyl-8-(trifluoromethyl)-4H-imidazo[1,2-a][1,4]benzodiazepin-2-yl]-(3-methoxyazetidin-1-yl)methanone]	18.4	93.1	93.1	13.2	141.7	2.15	168	2.68
C[C@@H]1N=C(c2ncccc2F)c2c(ccc(C(F)(F)F)c2Cl)-n2nc(NC(=O)NC3COC3)nc21 [Example 146, 1-[(4S)-7-chloro-6-(3-fluoro-2-pyridyl)-4-methyl-8-(trifluoromethyl)-4H-[1,2,4]triazolo[1,5-a][1,4]benzodiazepin-2-yl]-3-(oxetan-3-yl)urea]	7.2	36.1	36.1	13.1	364.3	2.56	111	2.11
C[C@@H]1N=C(c2ncccc2F)c2c(ccc(C(F)(F)F)c2Cl)-n2nc(N3CCOC3=O)nc21 [Example 147, 3-[(4S)-7-chloro-6-(3-fluoro-2-pyridyl)-4-methyl-8-(trifluoromethyl)-4H-[1,2,4]triazolo[1,5-a][1,4]benzodiazepin-2-yl]oxazolidin-2-one]	7.44	49.3	49.4	12.6	255.4	2.41	113	2.13
Cc1cn2c(n1)[C@H](C)N=C(c1c(F)cccc1F)c1c-2ccc(C(F)(F)F)c1Cl [Example 148, (4S)-7-chloro-6-(2,6-difluorophenyl)-2,4-dimethyl-8-(trifluoromethyl)-4H-imidazo[1,2-a][1,4]benzodiazepine]	2.1	10.2	10.2	0.866	84.7	1.93	73	1.73
C[C@@H]1N=C(c2c(F)cccc2F)c2c(ccc(C(F)(F)F)c2Cl)-n2cc(CO)nc21 [Example 149, [(4S)-7-chloro-6-(2,6-difluorophenyl)-4-methyl-8-(trifluoromethyl)-4H-imidazo[1,2-a][1,4]benzodiazepin-2-yl]methanol]	1.59	8.3	8.3	1.11	134.1	2.13	71	1.71
C[C@@H]1N=C(c2c(F)cccc2F)c2c(ccc(C(F)(F)F)c2Cl)-n2ccnc21 [Example 150, (4S)-7-chloro-6-(2,6-difluorophenyl)-4-methyl-8-(trifluoromethyl)-4H-imidazo[1,2-a][1,4]benzodiazepine]	1.33	7.3	7.3	0.758	103.2		70	
